The source of these data is patent US4156016A, “Indole compounds and process for their preparation” (Hoffmann-La Roche Inc., priority 1977, dated 1979).

Broadly, the IC50 is the concentration needed to halve the response being measured. As a reminder, the LD50 is the dose at which mortality reaches 50%. What is called ED50 is the dose at which the effect has come halfway, by size or by number of responders. Low values mean an effect at a small dose, high ones a need for a large dose.

In one series the test system is ADP induced aggregation. The series is described as follows: Inhibition of ADP-induced platelet aggregation (second wave) in human platelet-rich plasma. The series is classed as cell-based. The settings on record: incubation in human citrated platelet-rich plasma. How it is done: (§1) Venous blood was collected from human volunteers in siliconized 20 ml. […] Platelet rich plasma (PRP) was separated from the red blood cells by centrifugation at 180×g for 15 minutes at room temperature. Platelet poor plasma (PPP) was prepared by centrifuging PRP at 1000×g for 2 minutes.
(§2) Techniques established by Born et al., J. Physiol. […] PRP (1 ml.) was added to a siliconized cuvette containing a siliconized stirring bar and placed in a densitometer maintained at 37° C. and stirred at 1000 RPM. Various concentrations of test compounds were added in 50 μl of saline and incubated with PRP for 5 minutes. Aggregation was initiated by the addition of sufficient concentrations of ADP (Sigma Chemical Co.), epinephrine HCl (Parke, Davis & Co., Detroit, Michigan), or human mammary gland collagen (obtained from Roosevelt Hospital, N.Y.) to give about 60% of maximum aggregation response. The light transmission through PPP was used to determine maximum response. The percent inhibition of aggregation caused by the drug was calculated from the strip chart recordings at the point of maximum collagen response.

Series [1] concerns arachidonic acid induced diarrhea. The series is described as follows: Arachidonic acid diarrhea prevention (mice). The series is classed as in vivo, Carworth Farm CF-1 male mice. Here is the method: Carworth Farm CF-1 male mice weighing 18-20 grams were administered the test compound by either the oral or intraperitoneal route one hour prior to the intraperitoneal administration of 4 mg/kg of arachidonic acid (Hoffmann-La Roche Inc.). […] The diarrhea was graded on paper towels as follows: 0=solid pellet or no bowel movement; 1=slightly soft pellet with little or no wet ring formation; 2=moderately soft pellet with definite wet ring formation; 3=soft pellet with large wet ring formation; and 4=amorphous pellet with very large wet ring formation.
The calculation of the ED50 was made according to the method of Miller et al., Proc. Soc.

Series [2] concerns Collagen-Induced Platelet Aggregation. The series is described as follows: Inhibition of collagen-induced platelet aggregation in human platelet-rich plasma. Type of series: cell-based. Here is the method:
as §1, §2

Series [3] concerns platelet prostaglandin formation. The settings on record: cited from earlier work.
Series [4] deals with biosynthesis of thromboxanes. The settings on record: cited from earlier work.
The test system of series [5] is Collagen-Induced Platelet Aggregation. Description: Effect of compounds in whole blood: collagen-induced platelet aggregation after incubation in whole blood. The settings on record: incubation in whole blood. Type of series: cell-based, human. Here is the method: Aliquots of citrated human blood (10 ml.) were exposed to different concentrations of the "nitrile" by mechanically shaking at room temperature for 5 minutes.

The nature of another series: Acute toxicity in mice. Particulars: mouse, in vivo. Here is the method: CF-IS mice of both sexes weighing 17-25 grams were used. The compounds were ground in a mortar and suspended in 5% gum acacia for oral or intraperitoneal administration. Eight to ten mice were used per dose level. […] The LD50 was calculated by the method of Miller et al., Proc. Soc. Exp. Biol. Med., 57, pages 261-264 (1944).

A short description of series [6]: Gastric ulcer induction (rats). More on the design: species or system male Wistar rats. Particulars: rat, in vivo, po, rats; read-out: Ulcer incidence ED50. How it is done:
The test is a modification of that described by Brodie et al., Gastroenterology, 53, pages 604-610 (1967). Male Wistar rats (Royal Hart Laboratories) were deprived of food for 18 hours prior to testing. Tap water was permitted ad libitum. Test compounds were administered orally four hours to autopsy. The rats were sacrificed under ethyl ether anesthesia, opened along the ventral midline and the stomachs removed. The stomach was divided along the lesser curvature, everted, rinsed in saline, and examined for the presence of focal hemorrhage. Ulcers were rated on an all or none basis for incidence and, in addition, each stomach is graded for severity of ulcers formed. Ulcer scores: 0=none, 1=trace, 2=mild, 3=moderate, and 4=severe. The results of the ulcer scores obtained were subjected to statistical analysis by the student `t` test.

The subject of a further series is serum PGF2α. The series is described as follows: Inhibition of prostaglandin formation: serum PGF2α by radioimmunoassay (rats). The series is classed as in vivo, male rats. The settings on record: rats; for serum PGF2α ED50: 60 min; for ED50: Rattus norvegicus, 1 h.
Series [7] relates to Epinephrine induced aggregation. Description: Inhibition of epinephrine-induced platelet aggregation (second wave) in human platelet-rich plasma. The series is classed as cell-based. Particulars: incubation in human citrated platelet-rich plasma. Here is the method:
as §1, §2

The subject of the next series is platelet aggregation. The settings on record: cited from earlier work.
The test system of another series is thromboxanes. The settings on record: submicrogram concentrations of PGE2; cited from earlier work.
Series [8] relates to human blood-platelet aggregation. Description: Inhibition of human blood-platelet aggregation (general statement).
The subject of the next series is prostaglandin formation. Description: Inhibition of prostaglandin formation (general statement).
Series [9] can be described thus: Toxicity (general statement).
Series [10] can be described thus: Ulcerogenicity (general statement).
Where [11] appears, read: incubation in human citrated platelet-rich plasma, read-out: IC50 collagen.

For the compound `CC(=O)Oc1ccccc1C(=O)O` [Aspirin, reference compound], the IC50 amounted to 30000 nM in the series with ADP induced aggregation, 30000 nM in series [2] (setting [11]), 1500 nM in series [5] and 17000 nM in series [7]. In addition, in series [1] (p.o.), the “arachidonic acid induced diarrhea ED50” value stood at 1.3 mg/kg. Moreover, in [3], the “inhibition of platelet prostaglandin formation (in words)” value was “known inhibitors of platelet prostaglandin formation”. In addition, in series [4], the “inhibition of the biosynthesis of thromboxanes (in words)” value is given as “inhibits the biosynthesis of thromboxanes”. The compound further showed an LD50 at 120 h in “Acute toxicity in mice” (po) above 1000 mg/kg. In addition, in series [6], the TD50 at 4 h is 49 mg/kg. The “serum PGF2α ED50” value in the series on serum PGF2α (i.p.) and in the series with serum PGF2α (p.o.) was 10 mg/kg throughout.
Consider `CCCCC[C@H](O)/C=C/[C@H]1[C@H](O)CC(=O)[C@H]1CCCCCCC(=O)O` [Example 8-iso-PGE1, (8β,11α,13E,15S)-11,15-dihydroxy-9-oxoprost-13-en-1-oic acid], for which the “inhibition of platelet aggregation (in words)” value in the series on platelet aggregation is “demonstrated to inhibit platelet aggregation”.
With `COc1ccc2c(c1)c(CC(=O)O)c(C)n2C(=O)c1ccc(Cl)cc1` [Indomethacin, reference compound], the concentration for half-maximal inhibition (IC50) came out at 100 nM in the series on ADP induced aggregation; 1000 nM in [2] (setting [11]); 400 nM in series [5] (Homo sapiens, Platelet); 2000 nM in series [7]. Also, the median effective dose (ED50) in [1] (Mus musculus, po) is 0.8 mg/kg; in the series on serum PGF2α (ip), below 1 mg/kg; in the series with serum PGF2α (po), 1 mg/kg. The “inhibition of platelet prostaglandin formation (in words)” value in series [3] is listed as “known inhibitors of platelet prostaglandin formation”. In addition, the 50% lethal dose (LD50) at 120 h in the series “Acute toxicity in mice” (ip) was 193 mg/kg; in “Acute toxicity in mice” (po), 430 mg/kg. The TD50 at 4 h in series [6] amounted to 3 mg/kg.
Turning to `CCCCC[C@H](O)/C=C/[C@H]1[C@H](O)CC(=O)[C@@H]1CCCCCCC(=O)O` [PGE1, (11,13E,15S)-11,15-dihydroxy-9-oxoprost-13-en-1-oic acid], the “inhibition of platelet aggregation (in words)” value in the series with platelet aggregation is reported as “demonstrated to inhibit platelet aggregation”.
`CCCCC[C@H](O)/C=C/[C@H]1[C@H](O)CC(=O)[C@@H]1C/C=C\CCCC(=O)O` [PGE2]: the “potentiation of biological effects of thromboxanes” value in the series on thromboxanes is listed as at most 700%.
On to `NC(=O)c1[nH]c2ccc(C(O)(C(F)(F)F)C(F)(F)F)cc2c1-c1ccccc1` [amide, 3-Phenyl-5-[2,2,2-trifluoro-1-hydroxy-1-(trifluoromethyl)ethyl]indole-2-carboxamide], for which the IC50 in series [2] (Homo sapiens, Platelet, Table 7, read-out: Inhibition of collagen-induced platelet aggregation, Activity IC50) stood at 3000 nM. In addition, the “inhibition of human blood-platelet aggregation (in words)” value in series [8] is “inhibit prostaglandin formation and human blood-platelet aggregation”. The “inhibition of prostaglandin formation (in words)” value with prostaglandin formation is given as “inhibit prostaglandin formation”. The “toxicity (in words)” value in series [9] is “low in toxicity”. Besides, in [10], the “ulcerogenicity (in words)” value is “non-ulcerogenic”.
Take `CCCCCC[C@H](O)/C=C/[C@H]1[C@H](O)CC(=O)[C@@H]1CCCCCCC(=O)O` [ω-homo PGE1, (11α,13E,15S)-11,15-dihydroxy-20-methyl-9-oxoprost-13-en-1-oic acid]: the “inhibition of platelet aggregation (in words)” value in the series with platelet aggregation was “demonstrated to inhibit platelet aggregation”.
